“Also recorded” adds a separate entry of the source. Where two headings read alike, the source gives them in different places. Marks after values point to notes of the source that are not given here. No end group written: not given here.
Tests used:
HF = test: Cell proliferation, MTS assay; type: cell-based, human; conditions: 0.4 nM-4 μM, 96 well plates
Method: Cell proliferation was evaluated by measuring cell density as a function of time by two different colorimetric assays. The MTS colorimetric assay (CellTitre 96 Aqueous Assay by Promega) is based on dehydrogenase conversion of MTS (methyl tetrazolium salt) by viable cells to […] (Ge M. Tang, G., Ryan. T. J. and Malik. A. B., “Fibrinogen degradation product fragment D induces endothelial cell detachment by activation of cell-mediated fibrinolysis”, J. Clin. Inves., 90:2508-2516 (1992)); the methylene blue (MB) assay is based on the staining of monolayer cells after their fixation, and reading the absorbence of the absorbed dye.
The MTS assay for viable cells was performed as follows: 30 μL of freshly prepared MTS/PMS were added to each well; following 2 hrs incubation at 37° C., the plates were placed on a computer driven microplate reader (Anthos HT-II, Salzburg, Austria), programmed to shake the plate for 1 minute before reading the optical density (OD) of the dye at 490 nm. The measurements were repeated following 4 and 6 hours of incubation.
Peptides (Cα (SEQ ID NO:4), […], PreCγ (SEQ ID NO:2) and CαE (SEQ ID NO:3)), up to 1 μg/mL or 100 μg/mL fibrinogen or thrombin (final concentrations) were added to the culture medium and cell numbers were assayed by day 3 using the MTS assay. The change in cell number was compared with that observed versus saline control. Of the 5 peptides tested at dosages up to 10 μg/mL (approximately equimolar to 1 μg/mL fibrinogen), none of the peptides exerted significant effect on cell proliferation (FIG. 7).

tested cell lines = test: Haptotaxis assay, statements over the tested cell lines; type: cell-based; conditions: ligands covalently bound to SB; for haptotactic response / cell binding to SB-ligand, in words: near confluent cell cultures
Method: (§1) Peptides or fibrinogen were covalently bound to CNBr activated sepharose beads (SB) (Pharmacia, Piscataway, N.J.) using techniques previously used to bind albumin, fibrinogen and thrombin. Briefly, CNBr-activated sepharose 4B (Pharmacia) was washed with 1N HCl, and suspended in the coupling buffer (pH 8.3), following the protocol supplied by the manufacturer. The peptides were dialyzed against the coupling buffer to remove Tris. Peptides (1 mg) were not highly water soluble. The peptides were dissolved in 1 mL 70% ethanol or dimethylformamide, and were then mixed into the coupling buffer containing 1 mL CNBr-activated sepharose. The suspension was gently agitated overnight, then centrifuged 500×g to pack the beads. This procedure covalently binds more than 95% of proteins or peptides including fibrinogen or peptides-CαE (SEQ ID NO:3), Cβ (SEQ ID NO:1) and preCγ (SEQ ID NO:2) to the beads determined by Abs280 readings of the solutions.
(§2) The migratory/adhesion response of cells to proteins (such as fibrinogen) or peptides covalently bound to SB was measured as follows. Cells were grown in 6 or 12 well plates to near confluence or in suspension until they covered about ½ to ⅔ of the plate surface. At that point, about […] of a suspension containing 50% v/v SB coated with the test protein or peptide were added to the plate and dispersed by gentle shaking for 1 min. The plate was then returned to the incubator and examined at different times by inverted phase microscopy.
(§3) The SB (naked or ligand bound) sedimented onto the nearly confluent cell layer and occasionally made physical contact with cell membranes on the plate (ascribed to Brownian motion or micro-convection currents). […] Typically, 300 beads (but not less then 200) were counted in each well and the ratio of SB bound to the cells relative to total number SB could be calculated (SB bound/SB total). Counting the percentage of SB attached to the cell surface at different time intervals provided a quantitative assay of the kinetics of the attachment of coated beads to cells. Negative control with uncoated SB or positive controls with SB-fibrinogen were employed with at least 3 wells measured for each. The statistical error was calculated from the square root of the total counts.
(§4) The peptides of the present invention were synthesized and tested in cell culture systems as described above. Essentially, peptides were covalently attached to sepharose beads to form SB-Cα (SEQ ID NO:4), SB-Cβ (SEQ ID NO:1), SB-PreCγ (SEQ ID NO:2), SB-Cγ (SEQ ID NO:5) and SB-CαE (SEQ ID NO:3), respectively, as was fibrinogen to form SB-Fib. The SB-peptide combination was then incubated with cultured cells. […] The haptotactic potency of the peptides is summarized in Table 3 with the percentage of SB-Fib/peptide attached to cells (by day 4) given in columns 2-5 of Table 3.

[1] = system: porcine smooth muscle cells (SMC); test: Haptotaxis assay: attachment of ligand-coated SB to cultured cells; type: cell-based; conditions: for % Binding of peptide-coated SB to normal cultured cells: percentage of SB-ligand attached to cells by day 4
Method: as §1, §2, §3, §4

[2] = system: normal murine fibroblasts (MF); test: as above; type: cell-based; conditions: percentage of SB-ligand attached to cells by day 4
Method: as §1, §2, §3, §4

[3] = system: bovine aortic endothelial cells (EC, BAEC); test: as above; type: cell-based; conditions: for % Binding of peptide-coated SB to normal cultured cells: percentage of SB-ligand attached to cells by day 4
Method: as §1, §2, §3, §4

[4] = system: human ovarian carcinoma cells (OV-1063); test: as above; type: cell-based; conditions: percentage of SB-ligand attached to cells by day 4
Method: as §1, §2, §3, §4

[5] = system: murine mammary adenocarcinoma cells (EMT-6); test: as above; type: cell-based; conditions: percentage of SB-ligand attached to cells by day 4
Method: as §1, §2, §3, §4

[6] = system: normal human skin fibroblasts (HF); test: Haptotaxis assay: attachment of ligand-coated sepharose beads (SB) to cultured cells; type: cell-based; conditions: for % Binding of peptide-coated SB to normal cultured cells: percentage of SB-ligand attached to cells by day 4
Method: as §1, §2, §3, §4

[7] = system: normal human keratinocytes; test: Haptotaxis assay: attachment of ligand-coated SB to cultured cells; type: cell-based; conditions: Keratinocyte; percentage of SB-ligand attached to cells by day 4
Method: as §1, §2, §3, §4

BAEC = test: Chemotaxis, micro-Boyden chamber assay; type: cell-based, bovine
Method: Chemotaxis was evaluated using 48-well plastic Microtaxis micro-Boyden chambers. Polycarbonate filters with pore size of 8 μm were coated with fibronectin for 2 hours at 37° C. Conditioned medium from 3T3 cells served as a positive control. Test solution (26 μl) containing the tested peptides or protein or medium with no additions that served as control were placed in the lower chamber, covered with the filter. 50 μl cell suspension was introduced to the upper chamber of each well. The number of cells/well varied in the range of 5,000-10,000 in different experiments. The device loaded with cells was incubated at 37° C. for 4-5 hours. The filter was then removed and the non-migrating cells on its upper part were carefully wiped off with a damp cotton swab. The filter was fixed in methanol and stained with Accustain (modified Wright stain solution Sigma Diagnostics: St. Lois, Mo.). Cells that crossed or were retained within the filter were counted microscopically at low magnification so that the viewing field corresponded to the whole area of each well. Each experimental variant was performed in duplicated or triplicates and the data from, three successful experiments were normalized to the values of the positive control and averaged.
The chemotactic response of BAEC to a soluble gradient of […], the most haptotactic of the peptides studied was as follows. The results can be seen in FIG. 6. […] A similar, though more moderate, chemotaxis response to Cβ (SEQ ID NO:1) was obtained with HF.

EC cells (BAEC) = test: FACS analysis of binding of FITC-labeled peptides; type: cell-based, bovine; conditions: 10 μg/ml or 100 μg/ml, medium with 0.1% albumin
Method: EC and HF cell monolayers were washed and then incubated with trypsin-versene. Cells were then washed with growth medium and resuspended in medium with 0.1% albumin. FITC-labeled peptide-Cβ (SEQ ID NO:1) was incubated with 5×10^5 EC cells (10 μg/ml or 100 μg/ml) or with 2.5×10^5 HF cells (100 μg/ml) in medium with 0.1% albumin. FITC-labeled peptide-CαE (SEQ ID NO:3) and Cα (SEQ ID NO:4) (10 μg/ml) was incubated with 5×10^5 EC cells in medium with 0.1% albumin. Cells were then washed with PBS and 1% albumin. Cells were resuspended in PBS and 1% albumin and then filtered through a mesh for FACS analysis, in which the FITC tluorescence was measured for each cell.
The control is without FITC-labeled peptide (background fluorescence).
In competition experiments, cells were incubated with various concentrations of unlabeled Cβ (SEQ ID NO:1) for 15 mins, an aliquot of Cβ^FITC (4 mM) was added and the sample was subjected to FACS analysis. […] The Cβ^FITC (SEQ ID NO:1) uptake experiments best fitted a linear-quadratic curve-fit.

Substance | proliferative response of HF (MTS proliferation assay) (HF) | haptotactic response / cell binding to SB-ligand, in words (tested cell lines) | % Binding of peptide-coated SB to normal cultured cells [1] | cell binding / haptotactic response to SB-ligand, in words [3] | % Binding of peptide-coated SB to normal cultured cells [3] | % Binding of peptide-coated SB to normal cultured cells [6] | binding/uptake of FITC-labeled peptide by FACS, in words (EC cells (BAEC)) | other results
RGADYSLRAVRMKIRPLVTQ (Equivalent to the c-erminus of fibrinogen alpha-E-chain) [CαE, haptotactic peptide homologous to the C-terminus of the fibrinogen αE chain, αE 828-847] | none of these peptides stimulated or inhibited proliferation | to a lesser degree; also recorded: significant haptotactic responses |  |  |  |  |  | 
SB-Cγ: peptide Cγ (SEQ ID NO:5) covalently attached to sepharose beads (LTIGEGQQHHLGGAKQAGDV; also: attached to sepharose beads) [reference compound] |  |  | 1% | Variable haptotaxis | 2 to 93* % | 2% |  | % Binding of peptide-coated SB to normal cultured cells [2]: 0%; % Binding of peptide-coated SB to normal cultured cells [4]: 0%; % Binding of peptide-coated SB to normal cultured cells [5]: 2%
SB-Cα: peptide-Cα (SEQ ID NO:4) covalently attached to sepharose beads (EADHEGTHSTKRGHAKSRP; also: attached to sepharose beads) [reference compound] |  | No cell binding | 0% |  | 0% | 0% |  | number of cell lines bound by SB-ligand out of 7 tested (tested cell lines): none; % Binding of peptide-coated SB to normal cultured cells [2]: 0%; % Binding of peptide-coated SB to normal cultured cells [4]: 0%; % Binding of peptide-coated SB to normal cultured cells [7]: 0%; % Binding of peptide-coated SB to normal cultured cells [5]: 1%
LTIGEGQQHHLGGAKQAGDV (Equivalent to the c-terminus of fibrinogen gamma-chain) [Cγ, control peptide homologous to the C-terminus of the fibrinogen γ chain, γ 392-411, reference compound] | none of these peptides stimulated or inhibited proliferation | minor negligible activity |  | only negligible effect |  |  |  | cell binding / haptotactic response to SB-ligand, in words ([3]; listed as peptide Cγ): bound variably
KTRWYSMKKTTMKIIPFNRL (Equivalent to an internal sequence of fibrinogen gamma-chain) [PreCγ] | none of these peptides stimulated or inhibited proliferation | significant haptotactic responses |  | greatest haptotactic response |  |  |  | chemotaxis, in words (BAEC; concentrations of up to 40 μM): significant chemotaxis; haptotactic response / cell binding to SB-ligand, in words (tested cell lines; listed as preCγ): highly haptotactic; also recorded: most potent
SB-PreCγ: peptide preCγ (SEQ ID NO:2) covalently attached to sepharose beads (KTRWYSMKKTTMKIIPFNRL; also: attached to sepharose beads) |  |  | 98% | bound | 100% | 100% |  | cell lines excepted from binding to SB-ligand (all other tested lines bound) (tested cell lines): with the exception of OV-1063, keratinocytes and cells derived from a leucocytic lineage; cell binding to SB-ligand, in words [1]: bound; cell binding to SB-ligand, in words [6]: bound
FITC-labeled peptide Cα: FITC-labeled peptide Cα (SEQ ID NO:4), negative control (EADHEGTHSTKRGHAKSRP; not fully specified (N-terminus); also: FITC label, position not given here) [reference compound] |  |  |  |  |  |  | bound only slightly (non-specifically) | 
EADHEGTHSTKRGHAKSRP (Equivalent to the c-terminus of fibrinogen alpha-chain) [Cα, reference compound] | none of these peptides stimulated or inhibited proliferation | inactive |  |  |  |  | did not bind | chemotactic response of BAEC, in words (BAEC; soluble gradient, up to 40 μg/ml, conditioned medium = 100% chemotaxis): elicited no response; haptotactic response / cell binding to SB-ligand, in words (tested cell lines; listed as peptide-Cα): no cell adhesive effects
FITC-labeled peptide Cγ: FITC-labeled peptide Cγ (SEQ ID NO:5) (LTIGEGQQHHLGGAKQAGDV; not fully specified (N-terminus); also: FITC label, position not given here) [reference compound] |  |  |  |  |  |  | bound only slightly (non-specifically) | 

Source: patent US20070009571A1, “Novel haptotactic peptides” (Hadasit Medical Research Services & Development Ltd., priority 1998, published 2007)
